{
  "source": "ChEMBL document CHEMBL1156420",
  "about": "“In vitro efficacy, resistance selection, and structural modeling studies implicate the malarial parasite apicoplast as the target of azithromycin” (J Biol Chem, 2007)",
  "format_in_all_cases": "functional, organism-based",
  "key": {"Plasmodium falciparum [1]": {"tested_on": "Plasmodium falciparum", "experiment": "Antimalarial activity after 96 hrs against azithromycin-resistant Plasmodium falciparum 7G8 by [3H]hypoxanthine uptake"}, "Plasmodium falciparum [2]": {"tested_on": "Plasmodium falciparum", "experiment": "Antimalarial activity after 96hrs against Plasmodium falciparum GCO3 C2 mutant CRT/MDR1 by [3H]hypoxanthine uptake"}, "Plasmodium falciparum [3]": {"tested_on": "Plasmodium falciparum", "experiment": "Antimalarial activity after 48 hrs against Plasmodium falciparum 7G8 by [3H]hypoxanthine uptake"}, "Plasmodium falciparum [4]": {"tested_on": "Plasmodium falciparum", "experiment": "Antimalarial activity after 48 hrs against Plasmodium falciparum Dd2 by [3H]hypoxanthine uptake"}, "Plasmodium falciparum [5]": {"tested_on": "Plasmodium falciparum", "experiment": "Antimalarial activity against Plasmodium falciparum 3BA6 SDD with CRT and MDR1 mutation after 96 hrs in [3H]hypoxanthine uptake", "conditions": "3BA6, MDR1"}, "Plasmodium falciparum [6]": {"tested_on": "Plasmodium falciparum", "experiment": "Antimalarial activity after 96 hrs against Plasmodium falciparum GCO3 C6 mutant CRT/MDR1 by [3H]hypoxanthine uptake"}, "Plasmodium falciparum [7]": {"tested_on": "Plasmodium falciparum", "experiment": "Antimalarial activity after 96 hrs against Plasmodium falciparum 7G8 T76K1 mutant CRT/MDR1 by [3H]hypoxanthine uptake", "conditions": "7G8, MDR1"}, "Plasmodium falciparum [8]": {"tested_on": "Plasmodium falciparum", "experiment": "Antimalarial activity after 96 hrs against azithromycin-resistant Plasmodium falciparum Dd2 by [3H]hypoxanthine uptake"}, "Plasmodium falciparum [9]": {"tested_on": "Plasmodium falciparum", "experiment": "Antimalarial activity after 96 hrs against Plasmodium falciparum GCO3 C4 mutant CRT/MDR1 by [3H]hypoxanthine uptake"}, "Plasmodium falciparum [10]": {"tested_on": "Plasmodium falciparum", "experiment": "Antimalarial activity after 48 hrs against Plasmodium falciparum GCO3 by [3H]hypoxanthine uptake"}, "Plasmodium falciparum [11]": {"tested_on": "Plasmodium falciparum", "experiment": "Antimalarial activity after 96 hrs against Plasmodium falciparum Dd2 C1 mutant CRT/MDR1 by [3H]hypoxanthine uptake"}, "Plasmodium falciparum [12]": {"tested_on": "Plasmodium falciparum", "experiment": "Antimalarial activity after 96 hrs against Plasmodium falciparum GCO3 by [3H]hypoxanthine uptake"}, "Plasmodium falciparum [13]": {"tested_on": "Plasmodium falciparum", "experiment": "Antimalarial activity after 96 hrs against Plasmodium falciparum 3BA6 by [3H]hypoxanthine uptake"}, "Plasmodium falciparum [14]": {"tested_on": "Plasmodium falciparum", "experiment": "Antimalarial activity after 96hrs against Plasmodium falciparum 7G8 by [3H]hypoxanthine uptake"}, "Plasmodium falciparum [15]": {"tested_on": "Plasmodium falciparum", "experiment": "Antimalarial activity after 96 hrs against Plasmodium falciparum GCO3 SDD mutant CRT/MDR1 by [3H]hypoxanthine uptake"}, "Plasmodium falciparum [16]": {"tested_on": "Plasmodium falciparum", "experiment": "Antimalarial activity after 96 hrs against Plasmodium falciparum 3BA6 CDY mutant CRT/MDR1 by [3H]hypoxanthine uptake", "conditions": "3BA6, MDR1"}, "Plasmodium falciparum [17]": {"tested_on": "Plasmodium falciparum", "experiment": "Antimalarial activity after 96 hrs against Plasmodium falciparum GCO3 SND mutant CRT/MDR1 by [3H]hypoxanthine uptake"}, "Plasmodium falciparum [18]": {"tested_on": "Plasmodium falciparum", "experiment": "Antimalarial activity after 96 hrs against Plasmodium falciparum Dd2 T76K1 mutant CRT/MDR1 by [3H]hypoxanthine uptake"}, "Plasmodium falciparum [19]": {"tested_on": "Plasmodium falciparum", "experiment": "Antimalarial activity after 96 hrs against Plasmodium falciparum 3BA6 SND mutant CRT/MDR1 by [3H]hypoxanthine uptake", "conditions": "3BA6, MDR1"}, "Plasmodium falciparum [20]": {"tested_on": "Plasmodium falciparum", "experiment": "Antimalarial activity after 96 hrs against Plasmodium falciparum GCO3 CDY mutant CRT/MDR1 by [3H]hypoxanthine uptake"}, "Plasmodium falciparum [21]": {"tested_on": "Plasmodium falciparum", "experiment": "Antimalarial activity after 96 hrs against Plasmodium falciparum Dd2 by [3H]hypoxanthine uptake"}, "Plasmodium falciparum [22]": {"tested_on": "Plasmodium falciparum", "experiment": "Antimalarial activity after 96 hrs against Plasmodium falciparum 7G8 C1 mutant CRT/MDR1 by [3H]hypoxanthine uptake", "conditions": "7G8, MDR1"}},
  "data": [
    {"smiles": "CC[C@H]1OC(=O)[C@H](C)[C@@H](O[C@H]2C[C@@](C)(OC)[C@@H](O)[C@H](C)O2)[C@H](C)[C@@H](O[C@@H]2O[C@H](C)C[C@H](N(C)C)[C@H]2O)[C@](C)(O)C[C@@H](C)CN(C)[C@H](C)[C@@H](O)[C@]1(C)O", "note": "[AZITHROMYCIN]", "values": [
      {"measurement": "IC50", "setting": "Plasmodium falciparum [1]", "value": 3970, "unit": "nM"},
      {"measurement": "IC50", "setting": "Plasmodium falciparum [2]", "value": 48, "unit": "nM"},
      {"measurement": "IC50", "setting": "Plasmodium falciparum [3]", "value": 15700, "unit": "nM"},
      {"measurement": "IC50", "setting": "Plasmodium falciparum [4]", "value": 3460, "unit": "nM"},
      {"measurement": "IC50", "setting": "Plasmodium falciparum [5]", "value": 155, "unit": "nM"},
      {"measurement": "IC50", "setting": "Plasmodium falciparum [6]", "value": 76.7, "unit": "nM"},
      {"measurement": "IC50", "setting": "Plasmodium falciparum [7]", "value": 115, "unit": "nM"},
      {"measurement": "IC50", "setting": "Plasmodium falciparum [8]", "value": 1940, "unit": "nM"},
      {"measurement": "IC50", "setting": "Plasmodium falciparum [9]", "value": 66.7, "unit": "nM"},
      {"measurement": "IC50", "setting": "Plasmodium falciparum [10]", "value": 22600, "unit": "nM"},
      {"measurement": "IC50", "setting": "Plasmodium falciparum [11]", "value": 95.7, "unit": "nM"},
      {"measurement": "IC50", "setting": "Plasmodium falciparum [12]", "value": 43.3, "unit": "nM"},
      {"measurement": "IC50", "setting": "Plasmodium falciparum [13]", "value": 180, "unit": "nM"},
      {"measurement": "IC50", "setting": "Plasmodium falciparum [14]", "value": 228, "unit": "nM"},
      {"measurement": "IC50", "setting": "Plasmodium falciparum [15]", "value": 63.3, "unit": "nM"},
      {"measurement": "IC50", "setting": "Plasmodium falciparum [16]", "value": 194, "unit": "nM"},
      {"measurement": "IC50", "setting": "Plasmodium falciparum [17]", "value": 47.8, "unit": "nM"},
      {"measurement": "IC50", "setting": "Plasmodium falciparum [18]", "value": 122, "unit": "nM"},
      {"measurement": "IC50", "setting": "Plasmodium falciparum [19]", "value": 158, "unit": "nM"},
      {"measurement": "IC50", "setting": "Plasmodium falciparum [20]", "value": 70.2, "unit": "nM"},
      {"measurement": "IC50", "setting": "Plasmodium falciparum [21]", "value": 103, "unit": "nM"},
      {"measurement": "IC50", "setting": "Plasmodium falciparum [22]", "value": 142, "unit": "nM"}
    ]},
    {"smiles": "C[C@H]1c2cccc(O)c2C(=O)C2=C(O)[C@]3(O)C(=O)C(C(N)=O)=C(O)[C@@H](N(C)C)[C@@H]3[C@@H](O)[C@@H]21", "note": "[DOXYCYCLINE]", "values": [
      {"measurement": "IC50", "setting": "Plasmodium falciparum [1]", "value": 603, "unit": "nM"},
      {"measurement": "IC50", "setting": "Plasmodium falciparum [8]", "value": 302, "unit": "nM"},
      {"measurement": "IC50", "setting": "Plasmodium falciparum [14]", "value": 1440, "unit": "nM"},
      {"measurement": "IC50", "setting": "Plasmodium falciparum [21]", "value": 432, "unit": "nM"}
    ]},
    {"smiles": "CC[C@H]1OC(=O)[C@H](C)[C@@H](O[C@H]2C[C@@](C)(OC)[C@@H](O)[C@H](C)O2)[C@H](C)[C@@H](O[C@@H]2O[C@H](C)C[C@H](N(C)C)[C@H]2O)[C@](C)(O)C[C@@H](C)C(=O)[C@H](C)[C@@H](O)[C@]1(C)O", "note": "[ERYTHROMYCIN]", "values": [
      {"measurement": "IC50", "setting": "Plasmodium falciparum [1]", "value": 39500, "unit": "nM"},
      {"measurement": "IC50", "setting": "Plasmodium falciparum [8]", "value": 20300, "unit": "nM"},
      {"measurement": "IC50", "setting": "Plasmodium falciparum [14]", "value": 34700, "unit": "nM"},
      {"measurement": "IC50", "setting": "Plasmodium falciparum [21]", "value": 9400, "unit": "nM"}
    ]},
    {"smiles": "CN(C)[C@@H]1C(O)=C(C(N)=O)C(=O)[C@@]2(O)C(O)=C3C(=O)c4c(O)cccc4[C@@](C)(O)[C@H]3C[C@@H]12", "note": "[TETRACYCLINE]", "values": [
      {"measurement": "IC50", "setting": "Plasmodium falciparum [1]", "value": 365, "unit": "nM"},
      {"measurement": "IC50", "setting": "Plasmodium falciparum [8]", "value": 324, "unit": "nM"},
      {"measurement": "IC50", "setting": "Plasmodium falciparum [14]", "value": 697, "unit": "nM"},
      {"measurement": "IC50", "setting": "Plasmodium falciparum [21]", "value": 397, "unit": "nM"}
    ]},
    {"smiles": "C=C(NC(=O)C(=C)NC(=O)c1csc(C2=N[C@@H]3c4csc(n4)[C@H]4NC(=O)c5csc(n5)[C@H]([C@](C)(O)[C@@H](C)O)NC(=O)[C@H]5CSC(=N5)/C(=C/C)NC(=O)[C@H]([C@@H](C)O)NC(=O)c5csc(n5)[C@]3(CC2)NC(=O)[C@H](C)NC(=O)C(=C)NC(=O)[C@H](C)NC(=O)[C@H]([C@@H](C)CC)N[C@@H]2C=Cc3c([C@H](C)O)cc(nc3[C@H]2O)C(=O)O[C@@H]4C)n1)C(N)=O", "note": "[THIOSTREPTON]", "values": [
      {"measurement": "IC50", "setting": "Plasmodium falciparum [1]", "value": 217, "unit": "nM"},
      {"measurement": "IC50", "setting": "Plasmodium falciparum [3]", "value": 688, "unit": "nM"},
      {"measurement": "IC50", "setting": "Plasmodium falciparum [4]", "value": 2110, "unit": "nM"},
      {"measurement": "IC50", "setting": "Plasmodium falciparum [8]", "value": 175, "unit": "nM"},
      {"measurement": "IC50", "setting": "Plasmodium falciparum [10]", "value": 2280, "unit": "nM"},
      {"measurement": "IC50", "setting": "Plasmodium falciparum [12]", "value": 916, "unit": "nM"},
      {"measurement": "IC50", "setting": "Plasmodium falciparum [14]", "value": 555, "unit": "nM"},
      {"measurement": "IC50", "setting": "Plasmodium falciparum [21]", "value": 292, "unit": "nM"}
    ]},
    {"smiles": "Oc1cc(Cl)ccc1Oc1ccc(Cl)cc1Cl", "note": "[TRICLOSAN]", "values": [
      {"measurement": "IC50", "setting": "Plasmodium falciparum [3]", "value": 774, "unit": "nM"},
      {"measurement": "IC50", "setting": "Plasmodium falciparum [4]", "value": 6260, "unit": "nM"},
      {"measurement": "IC50", "setting": "Plasmodium falciparum [10]", "value": 2710, "unit": "nM"},
      {"measurement": "IC50", "setting": "Plasmodium falciparum [12]", "value": 1530, "unit": "nM"},
      {"measurement": "IC50", "setting": "Plasmodium falciparum [14]", "value": 424, "unit": "nM"},
      {"measurement": "IC50", "setting": "Plasmodium falciparum [21]", "value": 4190, "unit": "nM"}
    ]}
  ]
}
